According to patent US5262417A, “Antibacterial quinolone compounds” (The Upjohn Company, priority 1991, dated 1993):
Values after ≈ are worked out from the molar mass of the structure shown. Like-named read-outs stand apart in the source and are kept apart here.

Assays:
Test in all cases: Minimum inhibitory concentration (MIC) by agar dilution
Format in all cases: cell-based
Enterobacter cloacae = tested on: Enterobacter cloacae
Method: (§1) Briefly, MIC values are determined in unsupplemented Mueller Hinton Agar (MHA). The compounds tested are diluted serially into molten MHA at 47° C. The agar is poured into petri dishes and allowed to harden. The various bacteria used for testing are grown overnight on MHA at 35° C. and transferred to Trypticase soy broth (TSB) until a turbidity of 0.5 McFarland standard is obtained. The bacteria are diluted one to 20 in TSB and inoculated on the plates (1 μl using a Steers replicator).
as §1, with “Compounds of this invention can also be tested for in vitro antimicrobial activity using standard testing procedures such as the determination of minimum inhibitory concentration (MIC) by agar dilution as described in "Methods for Dilution Antimicrobial Susceptibility Tests for Bacteria That Grow Aerobically" (MFT) published Jan. […] Briefly,” for “Briefly,”, “(1μl” for “(1 μl”

Pseudomonas aeruginosa = conditions: Pseudomonas aeruginosa
Method: as §1, with “The antibacterial activity of the compounds of Formula IC was determined by using standard testing procedures such as the determination of minimum inhibitory concentration (MIC) by agar dilution as described in "Methods for Dilution Antimicrobial Susceptibility Tests for Bacteria That Grow Aerobically" (MFT) published January 1983 by the National Committee for Clinical Laboratory Standards, 771 East Lancaster Avenue, Villanova, Pa. 19084, USA. Briefly,” for “Briefly,”
(§2) Compounds of this invention can also be tested for in vitro antimicrobial activity using standard testing procedures such as the determination of minimum inhibitory concentration (MIC) by agar dilution as described in "Methods for Dilution Antimicrobial Susceptibility Tests for Bacteria That Grow Aerobically" (MFT) published Jan. 1983 by the National Committee for Clinical Laboratory Standards, 771 East Lancaster Avenue, Villanova, Penna. 19084, USA. Briefly, MIC values are determined in unsupplemented Mueller Hinton Agar (MHA). The compounds tested are diluted serially into molten MHA at 47° C. The agar is poured into petri dishes and allowed to harden. The various bacteria used for testing are grown overnight on MHA at 35° C. and transferred to Trypticase soy broth (TSB) until a turbidity of 0.5 McFarland standard is obtained. The bacteria are diluted one to 20 in TSB and inoculated on the plates (1μl using a Steers replicator). […] The MIC test results of selected of Formula B compounds of this invention are found in Tables B2-B9.

Streptococcus pyogenes = conditions: Streptococcus pyogenes
Method: (§3) The antibacterial activity of the compounds of Formula IC was determined by using standard testing procedures such as the determination of minimum inhibitory concentration (MIC) by agar dilution as described in "Methods for Dilution Antimicrobial Susceptibility Tests for Bacteria That Grow Aerobically" (MFT) published January 1983 by the National Committee for Clinical Laboratory Standards, 771 East Lancaster Avenue, Villanova, Pa. 19084, USA. Briefly, MIC values are determined in unsupplemented Mueller Hinton Agar (MHA). The compounds tested are diluted serially into molten MHA at 47° C. The agar is poured into petri dishes and allowed to harden. The various bacteria used for testing are grown overnight on MHA at 35° C. and transferred to Trypticase soy broth (TSB) until a turbidity of 0.5 McFarland standard is obtained. The bacteria are diluted one to 20 in TSB and inoculated on the plates (1 μl using a Steers replicator).
as §2

[1] = tested on: Staphylococcus epidermidis; conditions: 20 h
Method: as §3, §2

Staphylococcus aureus = conditions: Staphylococcus aureus
Method: as §3, §2

Citerobacter freundii = tested on: Citerobacter freundii
Method: as §3, §2

Escherichia coli = conditions: Escherichia coli
Method: as §3, §2

Proteus penneri = conditions: Proteus penneri
Method: as §3, §2

Serratia marcescens = conditions: 20 h
Method: as §3, §2

Klebsiella pneumoniae = tested on: Klebsiella pneumoniae
Method: as §3, §2

Streptococcus faecalis = conditions: Enterococcus faecalis
Method: as §3, §2

[2] = tested on: Acinetobacter calcoaceticus; conditions: Acinetobacter calcoaceticus
Method: as §3, §2

Streptococcus pneumoniae = conditions: Streptococcus pneumoniae
Method: as §3, §2

[3] = read-out: MINIMUM INHIBITORY CONCENTRATION
[4] = 20 h, read-out: MINIMUM INHIBITORY CONCENTRATION

Structure (SMILES): C#CC(C)(C)n1cc(C(=O)O)c(=O)c2cc(F)c(N3CCNCC3)c(F)c21.CS(=O)(=O)O [A, (+,-)-6,8-difluoro-1,4-dihydro-1-(1,1-dimethyl-2-propynyl)-4-oxo-7-(1-piperazinyl)-3-quinolinecarboxylic acid methanesulfonate]
- MIC (Enterobacter cloacae; UC9382, 20 h, read-out: Minimum Inhibitory Concentration): 0.25 µg/mL
- MIC (Pseudomonas aeruginosa; UC6676, 20 h, read-out: Minimum Inhibitory Concentration, Ps. aeruginosa UC 6676, Table CI): 4 µg/mL
- MIC (Pseudomonas aeruginosa; UC9191, 20 h, read-out: Minimum Inhibitory Concentration, Ps. aeruginosa UC 9191, Table CI): 2 µg/mL
- MIC (Pseudomonas aeruginosa; UC12120, 20 h, read-out: Minimum Inhibitory Concentration, Ps. aeruginosa UC 12120, Table CI): 2 µg/mL
- MIC (Streptococcus pyogenes; UC152, 20 h, read-out: Minimum Inhibitory Concentration, S. pyogenes UC 152, Table CI): 8 µg/mL
- MIC ([1]; read-out: Minimum Inhibitory Concentration): 1 µg/mL
- MIC (Staphylococcus aureus; UC6685, 20 h, read-out: Minimum Inhibitory Concentration, S. aureus UC 6685, Table CI): 2 µg/mL
- MIC (Staphylococcus aureus; UC9213, 20 h, read-out: Minimum Inhibitory Concentration, S. aureus UC 9213, Table CI): 4 µg/mL
- MIC (Staphylococcus aureus; UC9218, 20 h, read-out: Minimum Inhibitory Concentration, S. aureus UC 9218, Table CI): 2 µg/mL
- MIC (Staphylococcus aureus; UC9271, 20 h, read-out: Minimum Inhibitory Concentration, S. aureus UC 9271, Table CI): 2 µg/mL
- MIC (Citerobacter freundii; Citrobacter freundii, UC3507, 20 h, read-out: Minimum Inhibitory Concentration): 0.25 µg/mL
- MIC (Escherichia coli; UC6674, 20 h, read-out: Minimum Inhibitory Concentration, E. coli UC 6674, Table CI): 0.25 µg/mL
- MIC (Escherichia coli; UC9451, 20 h, read-out: Minimum Inhibitory Concentration, E. coli UC 9451, Table CI): 0.25 µg/mL
- MIC (Escherichia coli; UC9855, 20 h, read-out: Minimum Inhibitory Concentration, E. coli UC 9855, Table CI): 0.25 µg/mL
- MIC (Escherichia coli; UC9952, 20 h, read-out: Minimum Inhibitory Concentration, E. coli UC 9952, Table CI): 0.25 µg/mL
- MIC (Proteus penneri; UC9679, 20 h, read-out: Minimum Inhibitory Concentration, P. penneri UC 9679, Table CI): 1 µg/mL
- MIC (Serratia marcescens; [3]): 2 µg/mL
- MIC (Klebsiella pneumoniae; UC12081, 20 h, read-out: Minimum Inhibitory Concentration): 0.5 µg/mL
- MIC (Streptococcus faecalis; UC9217, 20 h, read-out: Minimum Inhibitory Concentration): 8 µg/mL
- MIC ([2]; UC12170, 20 h, read-out: Minimum Inhibitory Concentration, A. calcoaceticus UC 12170, Table CI): 1 µg/mL
- MIC (Streptococcus pneumoniae; UC41, 20 h, read-out: Minimum Inhibitory Concentration, S. pneumoniae UC 41, Table CI): 8 µg/mL

Structure (SMILES): C#CCn1cc(C(=O)O)c(=O)c2cc(F)c(N3CCC(N)C3)c(F)c21 (racemic) [D]
- MIC (Enterobacter cloacae; UC9382, 20 h, E. cloacae UC 9382, Table CI, read-out: Minimum Inhibitory Concentration): 1 µg/mL (≈ 2.88 µM)
- MIC (Pseudomonas aeruginosa; UC6676, 20 h, Ps. aeruginosa UC 6676, Table CI, read-out: Minimum Inhibitory Concentration): 8 µg/mL (≈ 23 µM)
- MIC (Pseudomonas aeruginosa; UC9191, 20 h, Ps. aeruginosa UC 9191, Table CI, read-out: Minimum Inhibitory Concentration): 8 µg/mL (≈ 23 µM)
- MIC (Pseudomonas aeruginosa; UC12120, 20 h, Ps. aeruginosa UC 12120, Table CI, read-out: Minimum Inhibitory Concentration): 4 µg/mL (≈ 11.5 µM)
- MIC (Streptococcus pyogenes; UC152, 20 h, S. pyogenes UC 152, Table CI, read-out: Minimum Inhibitory Concentration): 16 µg/mL (≈ 46.1 µM)
- MIC ([1]; S. epidermidis 30031, Table CI, read-out: Minimum Inhibitory Concentration): 2 µg/mL (≈ 5.76 µM)
- MIC (Staphylococcus aureus; UC6685, 20 h, S. aureus UC 6685, Table CI, read-out: Minimum Inhibitory Concentration): 4 µg/mL (≈ 11.5 µM)
- MIC (Staphylococcus aureus; UC9213, 20 h, S. aureus UC 9213, Table CI, read-out: Minimum Inhibitory Concentration): 8 µg/mL (≈ 23 µM)
- MIC (Staphylococcus aureus; UC9218, 20 h, S. aureus UC 9218, Table CI, read-out: Minimum Inhibitory Concentration): 8 µg/mL (≈ 23 µM)
- MIC (Staphylococcus aureus; UC9271, 20 h, S. aureus UC 9271, Table CI, read-out: Minimum Inhibitory Concentration): 8 µg/mL (≈ 23 µM)
- MIC (Citerobacter freundii; Citrobacter freundii, UC3507, 20 h, C. freundii UC 3507, Table CI, read-out: Minimum Inhibitory Concentration): 0.5 µg/mL (≈ 1.44 µM)
- MIC (Escherichia coli; UC6674, 20 h, E. coli UC 6674, Table CI, read-out: Minimum Inhibitory Concentration): 1 µg/mL (≈ 2.88 µM)
- MIC (Escherichia coli; UC9451, 20 h, E. coli UC 9451, Table CI, read-out: Minimum Inhibitory Concentration): 0.5 µg/mL (≈ 1.44 µM)
- MIC (Escherichia coli; UC9855, 20 h, E. coli UC 9855, Table CI, read-out: Minimum Inhibitory Concentration): 2 µg/mL (≈ 5.76 µM)
- MIC (Escherichia coli; UC9952, 20 h, E. coli UC 9952, Table CI, read-out: Minimum Inhibitory Concentration): 0.5 µg/mL (≈ 1.44 µM)
- MIC (Proteus penneri; UC9679, 20 h, P. penneri UC 9679, Table CI, read-out: Minimum Inhibitory Concentration): 0.5 µg/mL (≈ 1.44 µM)
- MIC (Serratia marcescens; S. marcescens, UC number not given, Table CI, read-out: Minimum Inhibitory Concentration): 0.06 µg/mL (≈ 0.173 µM)
- MIC (Klebsiella pneumoniae; UC12081, 20 h, K. pneumoniae UC 12081, Table CI, read-out: Minimum Inhibitory Concentration): 1 µg/mL (≈ 2.88 µM)
- MIC (Streptococcus faecalis; UC9217, 20 h, S. faecalis UC 9217, Table CI, read-out: Minimum Inhibitory Concentration): 32 µg/mL (≈ 92.1 µM)
- MIC ([2]; UC12170, 20 h, A. calcoaceticus UC 12170, Table CI, read-out: Minimum Inhibitory Concentration): 4 µg/mL (≈ 11.5 µM)
- MIC (Streptococcus pneumoniae; UC41, 20 h, S. pneumoniae UC 41, Table CI, read-out: Minimum Inhibitory Concentration): 32 µg/mL (≈ 92.1 µM)

Structure (SMILES): NC1CCN(c2c(F)cc3c(=O)c(C(=O)O)cn(C45CC(C4)C5)c3c2F)C1 (racemic) [No. 84, 7-(3-amino-1-pyrrolidinyl)-1-(bicyclo[1.1.1]pent-1-yl)-1,4-dihydro-6,8-difluoro-4-oxo-3-quinolinecarboxylic acid]
- MIC (Enterobacter cloacae; [4]): 0.06 µg/mL (≈ 0.16 µM)
- MIC (Pseudomonas aeruginosa; 20 h, read-out: MINIMUM INHIBITORY CONCENTRATION, Cult No. 6676, MHA): 1 µg/mL (≈ 2.66 µM)
- MIC (Pseudomonas aeruginosa; 20 h, read-out: MINIMUM INHIBITORY CONCENTRATION, Cult No. 9191, MHA): 0.5 µg/mL (≈ 1.33 µM)
- MIC (Pseudomonas aeruginosa; 20 h, read-out: MINIMUM INHIBITORY CONCENTRATION, Cult No. 12120, MHA): 0.5 µg/mL (≈ 1.33 µM)
- MIC (Streptococcus pyogenes; 20 h, read-out: MINIMUM INHIBITORY CONCENTRATION, Cult No. 152, MHA): 0.25 µg/mL (≈ 0.666 µM)
- MIC [1, 3]: 0.125 µg/mL (≈ 0.333 µM)
- MIC (Staphylococcus aureus; 20 h, read-out: MINIMUM INHIBITORY CONCENTRATION, Cult No. 6685, MHA): 0.06 µg/mL (≈ 0.16 µM)
- MIC (Staphylococcus aureus; 20 h, read-out: MINIMUM INHIBITORY CONCENTRATION, Cult No. 9213, MHA): 0.125 µg/mL (≈ 0.333 µM)
- MIC (Staphylococcus aureus; 20 h, read-out: MINIMUM INHIBITORY CONCENTRATION, Cult No. 9218, MHA): 0.125 µg/mL (≈ 0.333 µM)
- MIC (Staphylococcus aureus; 20 h, read-out: MINIMUM INHIBITORY CONCENTRATION, Cult No. 9271, MHA): 0.125 µg/mL (≈ 0.333 µM)
- MIC (Citerobacter freundii; [4]): 0.36 µg/mL (≈ 0.959 µM)
- MIC (Escherichia coli; 20 h, read-out: MINIMUM INHIBITORY CONCENTRATION, Cult No. 6674, MHA): 0.03 µg/mL (≈ 0.0799 µM)
- MIC (Escherichia coli; 20 h, read-out: MINIMUM INHIBITORY CONCENTRATION, Cult No. 9451, MHA): 0.06 µg/mL (≈ 0.16 µM)
- MIC (Escherichia coli; 20 h, read-out: MINIMUM INHIBITORY CONCENTRATION, Cult No. 9855, MHA): 0.06 µg/mL (≈ 0.16 µM)
- MIC (Escherichia coli; 20 h, read-out: MINIMUM INHIBITORY CONCENTRATION, Cult No. 9952, MHA): 0.03 µg/mL (≈ 0.0799 µM)
- MIC (Proteus penneri; 20 h, read-out: MINIMUM INHIBITORY CONCENTRATION, Cult No. 9679, MHA): 0.25 µg/mL (≈ 0.666 µM)
- MIC (Serratia marcescens; [3]): 0.125 µg/mL (≈ 0.333 µM)
- MIC (Klebsiella pneumoniae; [4]): 0.06 µg/mL (≈ 0.16 µM)
- MIC (Streptococcus faecalis; [4]): 0.5 µg/mL (≈ 1.33 µM)
- MIC ([2]; 20 h, read-out: MINIMUM INHIBITORY CONCENTRATION, Cult No. 12170, MHA): 0.125 µg/mL (≈ 0.333 µM)
- MIC (Streptococcus pneumoniae; 20 h, read-out: MINIMUM INHIBITORY CONCENTRATION, Cult No. 41, MHA): 0.5 µg/mL (≈ 1.33 µM)
